# Where “and” joins values, the source holds several entries; their conditions need not be identical. Equal values may be shown once. Ends that are not written are not given here.
# What was measured:
# STAT3 = conditions: sheet 6QHD_actives_decoys, retrospective screening set for STAT3 SH2 domain (PDB 6QHD); decoys are presumed inactives, not tested; ref DUD-E; cited from earlier work
# [1] = biological target: T1, STAT3 (127–770) SH2 domain (Homo sapiens, UniProt P40763); experiment: Fluorescence polarization assay (FP-assay), STAT3 SH2 domain; format: binding; set-up: key to identified as active in FP-assay: A compound was identified as active, if it had a mean IC50 value under 100 μM; conditions: for IC50: FP-assay, mean IC50, at least three biological replicates
# T1 construct: For STAT3 (127–770), the final concentration of the protein was 200 nM; made in house
# T1 sequence (P40763 127-770): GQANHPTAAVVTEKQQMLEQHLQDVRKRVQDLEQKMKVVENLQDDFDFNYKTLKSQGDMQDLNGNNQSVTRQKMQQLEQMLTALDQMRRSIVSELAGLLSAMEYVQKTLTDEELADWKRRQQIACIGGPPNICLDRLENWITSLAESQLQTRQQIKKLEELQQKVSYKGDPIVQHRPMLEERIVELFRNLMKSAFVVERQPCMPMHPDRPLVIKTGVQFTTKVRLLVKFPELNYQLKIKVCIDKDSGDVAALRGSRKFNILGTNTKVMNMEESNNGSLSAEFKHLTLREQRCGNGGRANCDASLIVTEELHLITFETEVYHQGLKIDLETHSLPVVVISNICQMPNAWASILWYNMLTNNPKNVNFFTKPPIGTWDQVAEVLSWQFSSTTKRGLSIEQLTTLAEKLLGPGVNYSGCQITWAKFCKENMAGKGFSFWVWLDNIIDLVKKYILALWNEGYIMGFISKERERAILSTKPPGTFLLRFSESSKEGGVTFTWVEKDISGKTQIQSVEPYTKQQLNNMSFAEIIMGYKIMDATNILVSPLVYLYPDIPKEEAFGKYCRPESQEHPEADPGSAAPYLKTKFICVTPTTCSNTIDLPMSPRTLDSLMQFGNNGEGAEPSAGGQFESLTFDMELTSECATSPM
# Description: (§1) The respective protocols for the expression and purification of the STAT3 SH2 and STAT5b SH2 domains were published in our recent works. Fluorescence polarization assays (FP-assays) were performed on a Molecular Devices SpectraMax iD5Multimode Microplate Reader (San Jose, CA, USA) using Greiner black 384-well flat-bottom nonbinding microplates with 40 μL final well volumes. The fluorescent peptides (5-FAM-G(pTyr)-LPQTV-NH2 and 5-FAM-G(pTyr)-LVLDKW-NH2, purchased from GenScript Biotech Ltd., Piscataway, NJ, USA), as well as the proteins, were diluted with a buffer containing 50 mM NaCl, 10 mM HEPES (4-(2-hydroxyethyl)-1-piperazineethanesulfonic acid), 1 mM EDTA (ethylenediaminetetraacetic acid), 2 mM DTT (dithiothreitol), and 0.1% Triton X-100, pH 7.5. For STAT3 (127–770), the final concentration of the protein was 200 nM, and the fluorescent peptide (5-FAM-G(pTyr)-LPQTV-NH2) was added at a final concentration of 5 nM; for STAT5b (136–703), the final concentration of the protein was 500 nM, and the fluorescent peptide (5-FAM-G(pTyr)-LVLDKW-NH2) was added at a final concentration of 10 nM. The wells were treated with varying concentrations of inhibitors (1250 to 0.11 μM final concentrations). The final DMSO content was 2.5%. After mixing, the protein and inhibitors were incubated at room temperature for 30 min, then the fluorescent peptide was added, and the plate was incubated for another 20 min prior to the fluorescence readout (extinction wavelength: 475 nm, emission wavelength: 520 nm). The measurements were carried out in at least three biological replicates. Fluorescence polarization was calculated from the perpendicular and parallel fluorescence intensities and then plotted against concentration. The IC50 values were determined after fitting quadratic dose–response curves on the data points in GraphPad Prism 8.0.1. […] All plotted curves and data points for the hit compounds are included in Section 2 of the Supporting Information.
# [2] = biological target: T2, STAT5b (136–703) SH2 domain (Homo sapiens, UniProt P51692); experiment: Fluorescence polarization assay (FP-assay), STAT5b SH2 domain; format: binding; set-up: key to identified as active in FP-assay: A compound was identified as active, if it had a mean IC50 value under 100 μM; conditions: for IC50: FP-assay, mean IC50, at least three biological replicates
# T2 sequence (P51692 136-703): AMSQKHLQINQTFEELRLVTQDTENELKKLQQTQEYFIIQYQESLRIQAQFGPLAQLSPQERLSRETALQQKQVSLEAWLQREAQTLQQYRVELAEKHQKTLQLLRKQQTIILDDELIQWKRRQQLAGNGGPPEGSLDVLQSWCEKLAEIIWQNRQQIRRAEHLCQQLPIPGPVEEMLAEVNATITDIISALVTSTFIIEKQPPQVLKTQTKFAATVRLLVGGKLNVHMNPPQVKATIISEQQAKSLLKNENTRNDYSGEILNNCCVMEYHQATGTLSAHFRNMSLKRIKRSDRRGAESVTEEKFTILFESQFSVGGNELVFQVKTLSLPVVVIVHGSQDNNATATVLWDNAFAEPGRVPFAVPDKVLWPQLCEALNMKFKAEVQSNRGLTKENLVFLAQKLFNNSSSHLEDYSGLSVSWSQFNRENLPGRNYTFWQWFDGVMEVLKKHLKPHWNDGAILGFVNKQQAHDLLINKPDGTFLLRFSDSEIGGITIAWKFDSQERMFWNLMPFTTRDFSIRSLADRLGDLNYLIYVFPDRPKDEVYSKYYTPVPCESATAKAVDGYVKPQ
# Description: as §1
Compound,Type (STAT3),IC50 [1],further results
COc1cc(Cc2cc(OC)c(OC)cc2NS(=O)(=O)c2ccc3c(c2)NC(=O)CO3)c(NS(=O)(=O)c2ccc3c(c2)NC(=O)CO3)cc1OC [Decoy940],Inactive (Decoy),,
COc1c(O)ccc(/C=N/NC(=O)/C(=C\c2ccc(N(C)C)cc2)NC(=O)c2ccccc2)c1[N+](=O)[O-] [Decoy941],Inactive (Decoy),,
CCC/C=C/[C@@H](C(=O)NCS(=O)(=O)c1ccc(C)cc1)N(Cc1ccco1)C(=O)c1c(O)cccc1O [Decoy942],Inactive (Decoy),,
CO[C@H]1C[C@H](O[C@H]2CC[C@]3(C=O)[C@H]4CC[C@]5(C)[C@@H](C6=CC(=O)OC6)CC[C@]5(O)[C@@H]4CC[C@]3(O)C2)O[C@H](C)[C@H]1O[C@H]1O[C@H](CO)[C@@H](O)[C@H](O)[C@H]1O [Decoy943],Inactive (Decoy),,
COc1ccc2[nH]cc(CCN/C(=N/C(=O)/C=C/c3cc(OC)c(OC)c(OC)c3)Nc3nc(C)cc(C)n3)c2c1 [Decoy944],Inactive (Decoy),,
C[C@@H](NC(=O)[C@@H](N)Cc1ccc(O)cc1)C(=O)NCC(=O)N[C@@H](Cc1ccccc1)C(=O)NNC(=O)[C@H](Cc1ccccc1)NC(=O)CNC(=O)[C@@H](C)NC(=O)[C@@H](N)Cc1ccc(O)cc1 [Decoy945],Inactive (Decoy),,
Nc1ncnc2c1ncn2[C@@H]1O[C@H](CO[P@](=O)(O[C@H](CO)[C@@H](O)[C@H](O)[C@@H](O)C=O)OP(=O)(O)O)[C@@H](O)[C@H]1O [Decoy946],Inactive (Decoy),,
CCCOc1cccc(C(=O)NC(=S)Nc2ccc(S(=O)(=O)Nc3cc(OC)ncn3)cc2)c1 [Decoy947],Inactive (Decoy),,
Cc1ccc(C)c(NC(=O)CCC(=O)N/N=C(/S)NC(=O)c2ccccc2[N+](=O)[O-])c1 [Decoy948],Inactive (Decoy),,
OC[C@@H]1O[C@H](O[C@H]2O[C@H](CO)[C@H](O)[C@H](OCc3ccccc3)[C@@H]2OCc2ccccc2)[C@H](OCc2ccccc2)[C@H](OCc2ccccc2)[C@@H]1O [Decoy949],Inactive (Decoy),,
CCCCN(CC)S(=O)(=O)c1cc([N+](=O)[O-])ccc1NN/C=C1/C(=O)N=C(O)NC1=O [Decoy950],Inactive (Decoy),,
CCOC(=O)C1=C(C)N(CCOC)C(=O)/C1=C\c1ccc(CNC(=O)C(=O)Nc2ccc(C(=O)OCC)cc2)o1 [Decoy951],Inactive (Decoy),,
CCN(CC)Cc1nnn(-c2nonc2N)c1C(=O)N/N=C(\C)c1ccc(OCc2ccc(Cl)cc2Cl)cc1 [Decoy952],Inactive (Decoy),,
CCCn1c(N)c(N(CCOC)C(=O)Cc2coc3cc(C)c(C(C)C)cc23)c(=O)[nH]c1=O [Decoy953],Inactive (Decoy),,
Cc1c(C#N)c(NC(=O)CSc2nnc(COc3ccccc3F)n2N)n(C[C@@H]2CCCO2)c1C [Decoy954],Inactive (Decoy),,
CC(=O)N[C@@H]1[C@@H](OC(C)=O)[C@H](OC(C)=O)[C@@H](COC(C)=O)O[C@H]1Sc1nnc(-c2ccccc2)n1C(C)C [Decoy955],Inactive (Decoy),,
CCCCCCCCO[C@@H]1[C@@H](O)[C@@H](O)O[C@H](Cn2c(=O)n(C[C@H]3O[C@H](O)[C@H](O)[C@@H](OCCCCCCCC)[C@@H]3O)c3cc(Cl)ccc32)[C@H]1O [Decoy956],Inactive (Decoy),,
CCCCCCCCO[C@@H]1[C@@H](O)[C@H](O)O[C@H](Cn2c(=O)n(C[C@H]3O[C@@H](O)[C@H](O)[C@@H](OCCCCCCCC)[C@@H]3O)c3cc(Cl)ccc32)[C@H]1O [Decoy957],Inactive (Decoy),,
CC(=O)Nc1ccc(S(=O)(=O)Nc2nnc(CCNS(=O)(=O)c3ccc(C)cc3)s2)cc1 [Decoy958],Inactive (Decoy),,

Compound,Type (STAT3),IC50 [1],further results
COC(=O)[C@@H]1O[C@@H](O[C@@H]2CC[C@@]3(C)[C@@H](CC[C@H]4[C@H]3C(=O)C[C@@]3(C)[C@@H]4CC[C@]3(O)/C(COC(C)=O)=N/NC(N)=O)C2)[C@H](OC(C)=O)[C@@H](OC(C)=O)[C@@H]1OC(C)=O [Decoy959],Inactive (Decoy),,
"Nc1ccc(-n2ccc(C(=O)O)n2)nc1 [S3_B12, Nc1ccc(nc1)n1ccc(n1)C(=O)O]",,> 100 µM and 104 µM,identified as weakly binding in FP-assay [1]: weakly binding (A weakly binding compound (mean IC50 value higher than 100 μM))
"NC(=O)C1CCN(C(=O)c2ccccc2NC(=O)c2cccc(NC(=O)CCn3ccnc3)c2)CC1 [S3_E3, NC(=O)C1CCN(CC1)C(=O)c2ccccc2NC(=O)c3cccc(c3)NC(=O)CCn4cc[n]c4]",,472 ± 112 µM,identified as weakly binding in FP-assay [1]: weakly binding (A weakly binding compound (mean IC50 value higher than 100 μM))
"NC(=O)CSc1ccccc1C(=O)NC[C@H](O)COc1ccc2c(c1)OCO2 [S3_E4, NC(=O)CSc1ccccc1C(=O)NC[C@H](O)COc(cc2)cc(c23)OCO3]",,13.6 ± 6.1 µM,identified as active in FP-assay [1]: active
"COc1ccccc1COC[C@@H](O)CN[C@H](C)c1cccc(S(N)(=O)=O)c1 [S3_E5, COc1ccccc1COC[C@@H](O)C[NH][C@H](C)c2cccc(c2)S(=O)(=O)N]",,26.7 ± 22.2 µM,identified as active in FP-assay [1]: active
"O=[N+]([O-])c1ccccc1S(=O)(=O)NC[C@H](O)COc1ccc2c(c1)OCO2 [S3_E6, O=[N+]([O-])c1ccccc1S(=O)(=O)NC[C@H](O)COc(cc2)cc(c23)OCO3]",,21.7 ± 10.4 µM,identified as active in FP-assay [1]: active
"Cc1cccc(OC[C@@H](O)CN(C(=O)NC[C@H]2CC(C(N)=O)=NO2)C(C)C)c1 [S3_E7, Cc1cc(ccc1)OC[C@@H](O)CN(C(C)C)C(=O)NC[C@H]2CC(=NO2)C(=O)N]",,62.7 ± 25.1 µM,identified as active in FP-assay [1]: active
"NCCN(Cc1csc(COc2ccccc2)n1)C[C@@H](O)CO [S3_E8, OC[C@H](O)CN(CC[NH2])Cc1csc(n1)COc2ccccc2]",,454 ± 181 µM,identified as weakly binding in FP-assay [1]: weakly binding (A weakly binding compound (mean IC50 value higher than 100 μM))
"C[C@@H](NC(=O)[C@@H]1CCCC[C@@H]1C(=O)O)c1ccncc1 [S3_M2, c1cnccc1[C@@H](C)NC(=O)[C@@H]2CCCC[C@@H]2C([OH])=O]",,80 ± 34.3 µM,identified as active in FP-assay [1]: active
"O=C(O)c1[nH]c2ccccc2c1C(=O)O [S3_M5, [OH]C(=O)c([nH]1)c(C(=O)[OH])c(c12)cccc2]",,53.2 ± 46.9 µM,identified as active in FP-assay [1]: active
"O=C(O)CCCn1ccc2c(nnc3ccnn32)c1=O [S3_M13, n1ccc(nn2)n1c(c23)ccn(c3=O)CCCC([OH])=O]",,64.4 ± 17.7 µM,identified as active in FP-assay [1]: active
"Nc1ccc(C(=O)O)c(C(=O)O)c1 [S3_M15, Nc1cc(C([OH])=O)c(C([OH])=O)cc1]",,,identified as weakly binding in FP-assay [1]: weakly binding (A weakly binding compound (mean IC50 value higher than 100 μM))
"Cc1cc(=O)c(C(=O)O)c(O)[nH]1 [S3_M16, [OH]C(=O)c1c(=O)cc(C)[nH]c1O]",,111 ± 64.7 µM,
"Cc1c(O)ccc2c(CC(=O)NCC(=O)NCC(=O)O)cc(=O)oc12 [S3_O10, Cc1c(O)ccc2c(CC(=O)NCC(=O)NCC(=O)[OH])cc(=O)oc12]",,99.9 ± 55.6 µM,identified as active in FP-assay [1]: active
"O=C(O)C[C@@H](O)c1nc2ccccc2[nH]1 [S5_M1, [OH]C(=O)C[C@@H](O)c([nH]1)nc(c12)cccc2]",,,identified as active in FP-assay [2]: active; IC50 [2]: 38.7 ± 13.7 µM
"COc1cnc(CSc2nc(C)cc(C)n2)cc1OCC(N)=O [S5_M2, Cc(n1)cc(C)nc1SCc2cc(c(cn2)OC)OCC(=O)N]",,,identified as active in FP-assay [2]: active; IC50 [2]: 62.4 ± 28.2 µM
VAITVLVK [Decoy793],Inactive (Decoy),,
WAGGDASGE [Decoy910],Inactive (Decoy),,
